Data as given in patent US3939043A, “Antibiotics designated XK-88 series and process for production thereof” (Abbott Laboratories, priority 1973, dated 1976).
≈ marks a conversion by molar mass, not a printed value. Where two headings read alike, the source gives them in different places.

Legend:
Staphylococcus aureus = assay: Antibacterial activity against resistant bacteria (summary of Table 4); assay type: cell-based; conditions: Staphylococcus aureus normally resistant to various known antibiotics
Description: (§1) The in vitro antibacterial spectra of the XK-88 antibiotics by agar dilution method (pH 8.0) is illustrated in the following Table 4: […]

Escherichia coli = assay: as above; assay type: cell-based; conditions: Escherichia coli normally resistant to various known antibiotics
Description: as §1

[1] = tested on: Staphylococcus aureus KY 8956; assay: In vitro antibacterial spectrum by agar dilution method (pH 8.0); assay type: cell-based; conditions: KY8956, Staphylococcus aureus KY 8956 (resistant to Streptomycin, Paromomycin, Tetracycline, Kanamycin, Nebramycin, Tobramycin and Erythromycin), read-out: Minimum Inhibitory Concentration (M.I.C.)
[2] = tested on: Proteus vulgaris ATCC 6897; assay: as above; assay type: cell-based
Escherichia coli KY 8334 = assay: as above; assay type: cell-based; conditions: KY8334, Escherichia coli KY 8334 (resistant to Kanamycin and Tobramycin), read-out: Minimum Inhibitory Concentration (M.I.C.)
Escherichia coli KY 8348 = assay: as above; assay type: cell-based; conditions: KY8348, Escherichia coli KY 8348 (resistant to Streptomycin and Gentamicin), read-out: Minimum Inhibitory Concentration (M.I.C.)
[3] = tested on: Gram-positive and Gram-negative bacteria; assay: Antibacterial activity (summary of Table 4); assay type: cell-based; conditions: versus the said known antibiotics; from Table 4
Description: as §1

[4] = tested on: Bacillus cereus ATCC 9634; assay: In vitro antibacterial spectrum by agar dilution method (pH 8.0); assay type: cell-based; conditions: ATCC9634, read-out: Minimum Inhibitory Concentration (M.I.C.)
[5] = tested on: Salmonella typhosa ATCC 9992; assay: as above; assay type: cell-based; conditions: Salmonella enterica, pH 8, read-out: Minimum Inhibitory Concentration (M.I.C.)
[6] = tested on: Bacillus subtilis No. 10703; assay: as above; assay type: cell-based
Escherichia coli KY 8314 = assay: as above; assay type: cell-based; conditions: KY8314, Escherichia coli KY 8314 (resistant to Streptomycin), read-out: Minimum Inhibitory Concentration (M.I.C.)
Description: (§2) The in vitro antibacterial spectra of the XK-88 antibiotics by agar dilution method (pH 8.0) is illustrated in the following Table 4:
(§3) (Minimum Inhibitory Concentration (μg/ml)
(§4) by agar dilution method (pH 8.0)

Escherichia coli KY 8331 = assay: as above; assay type: cell-based; conditions: KY8331, Escherichia coli KY 8331 (resistant to Kanamycin, Ribostamycin, Neomycin, Paromomycin, Lividomycin and Nebramycin), read-out: Minimum Inhibitory Concentration (M.I.C.)
Description: as §2, §3, §4

[7] = tested on: Shigella sonnei ATCC 9290; assay: as above; assay type: cell-based; conditions: ATCC9290, read-out: Minimum Inhibitory Concentration (M.I.C.)
Description: as §2, §3, §4

Escherichia coli KY 8310 = assay: as above; assay type: cell-based; conditions: KY8310, Escherichia coli KY 8310 (resistant to Chloramphenicol, Streptomycin, Kanamycin, Gentamicin, Paromomycin, Nebramycin, Tobramycin, Spectinomycin and Tetracycline), read-out: Minimum Inhibitory Concentration (M.I.C.)
Description: as §2, §3, §4

[8] = tested on: Klebsiella pneumoniae ATCC 10031; assay: as above; assay type: cell-based; conditions: ATCC10031, read-out: Minimum Inhibitory Concentration (M.I.C.)
[9] = tested on: Staphylococcus aureus KY 8957; assay: as above; assay type: cell-based; conditions: KY8957, Staphylococcus aureus KY 8957 (resistant to Chloramphenicol, Streptomycin, Kanamycin, Paromomycin, Nebramycin, Tobramycin and Tetracycline), read-out: Minimum Inhibitory Concentration (M.I.C.)
[10] = tested on: Staphylococcus aureus KY 8942; assay: as above; assay type: cell-based
[11] = tested on: Staphylococcus aureus KY 8950; assay: as above; assay type: cell-based; conditions: KY8950, Staphylococcus aureus KY 8950 (resistant to Streptomycin, Tetracycline, Penicillin and sulfonamide), read-out: Minimum Inhibitory Concentration (M.I.C.)
[12] = tested on: Staphylococcus aureus ATCC 6538P; assay: as above; assay type: cell-based; conditions: ATCC6538P, read-out: Minimum Inhibitory Concentration (M.I.C.)
[13] = tested on: Pseudomonas aeruginosa BMH No. 1; assay: as above; assay type: cell-based
[14] = tested on: Bacillus cereus var. mycoides ATCC 9463; assay: microbe, parasite or virus in culture; assay type: cell-based; conditions: ATCC9463, pH 8, read-out: Minimum Inhibitory Concentration (M.I.C.)
Escherichia coli ATCC 26 = assay: In vitro antibacterial spectrum by agar dilution method (pH 8.0); assay type: cell-based
[15] = tested on: Staphylococcus aureus KY 8953; assay: as above; assay type: cell-based
Escherichia coli KY 8327 = assay: as above; assay type: cell-based; conditions: KY8327, Escherichia coli KY 8327 (resistant to Kanamycin, Gentamicin, Nebramycin and Tobramycin), read-out: Minimum Inhibitory Concentration (M.I.C.)
[16] = tested on: Streptococcus faecalis ATCC 10541; assay: as above; assay type: cell-based; conditions: Enterococcus faecalis
Solubility = assay type: physicochemical; conditions: for solubility in organic solvents: acetone, ethyl acetate, ethyl ether, chloroform, etc.
[17] = Staphylococcus aureus, KY8953, pH 8, read-out: Minimum Inhibitory Concentration (M.I.C.)
[18] = ATCC10541, pH 8, read-out: Minimum Inhibitory Concentration (M.I.C.)
[19] = ATCC6897, Proteus vulgaris ATCC 6897, agar dilution, pH 8.0, read-out: Minimum Inhibitory Concentration (M.I.C.)
[20] = Bacillus subtilis No. 10703, agar dilution, pH 8.0, read-out: Minimum Inhibitory Concentration (M.I.C.)
[21] = KY8942, Staphylococcus aureus KY 8942 (resistant to Kanamycin, Paromomycin, Streptomycin, Gentamicin and Nebramycin), agar dilution, pH 8.0, read-out: Minimum Inhibitory Concentration (M.I.C.)
[22] = BMHNO.1, Pseudomonas aeruginosa BMH No. 1, agar dilution, pH 8.0, read-out: Minimum Inhibitory Concentration (M.I.C.)
[23] = ATCC26, Escherichia coli ATCC 26, agar dilution, pH 8.0, read-out: Minimum Inhibitory Concentration (M.I.C.)
[24] = KY8953, Staphylococcus aureus KY 8953 (resistant to Streptomycin, Kanamycin, Paromycin, Neomycin, Tetracycline, Erythromycin), agar dilution, pH 8.0, read-out: Minimum Inhibitory Concentration (M.I.C.)

Compound | antibacterial activity (Staphylococcus aureus) | antibacterial activity (Escherichia coli) | MIC [1] | MIC (Escherichia coli KY 8334) | MIC (Escherichia coli KY 8348) | cross resistance with known antibiotics [3] | MIC [4] | MIC [5] | MIC (Escherichia coli KY 8314) | MIC (Escherichia coli KY 8331) | MIC [7] | MIC (Escherichia coli KY 8310) | MIC [8] | MIC [9] | MIC [11] | MIC [12] | MIC [14] | MIC (Escherichia coli KY 8327) | solubility in organic solvents (Solubility) | solubility in methanol and ethanol (Solubility) | other results
NC1CC(N)C(OC2OC(CO)C(O)C(O)C2N)C(O)C1OC1OCC(O)C(O)C1N (stereo not shown) [XK-88-1] | strong antibacterial activity | strong antibacterial activity | 208 µg/mL (≈ 459 µM) | 1.65 µg/mL (≈ 3.63 µM) | 13.5 µg/mL (≈ 29.7 µM) | complete cross resistance does not always occur | 6.6 µg/mL (≈ 14.5 µM) | 26.1 µg/mL (≈ 57.4 µM) | 52.1 µg/mL (≈ 115 µM) | > 416 µg/mL | 52.1 µg/mL (≈ 115 µM) | > 416 µg/mL | 13.1 µg/mL (≈ 28.8 µM) | 104 µg/mL (≈ 229 µM) | 13.1 µg/mL (≈ 28.8 µM) | 6.6 µg/mL (≈ 14.5 µM) | 3.3 µg/mL (≈ 7.26 µM) | 13.1 µg/mL (≈ 28.8 µM) | – | – | MIC ([2]; Proteus vulgaris, ATCC6897, pH 8, read-out: Minimum Inhibitory Concentration (M.I.C.)): 416 µg/mL (≈ 916 µM); MIC ([6]; Bacillus subtilis, NO.10703, pH 8, read-out: Minimum Inhibitory Concentration (M.I.C.)): 52.1 µg/mL (≈ 115 µM); MIC ([10]; Staphylococcus aureus, KY8942, pH 8, read-out: Minimum Inhibitory Concentration (M.I.C.)): 52.1 µg/mL (≈ 115 µM); MIC ([13]; Pseudomonas aeruginosa, BMHNO.1, pH 8, read-out: Minimum Inhibitory Concentration (M.I.C.)): > 416 µg/mL; MIC (Escherichia coli ATCC 26; Escherichia coli, ATCC26, pH 8, read-out: Minimum Inhibitory Concentration (M.I.C.)): 26.1 µg/mL (≈ 57.4 µM); MIC [15, 17]: > 416 µg/mL; MIC [16, 18]: > 416 µg/mL
NCC1CC(O)C(N)C(OC2C(N)CC(N)C(O)C2O)O1 (stereo not shown) [XK-88-2] | strong antibacterial activity | strong antibacterial activity | 0.09 µg/mL (≈ 0.294 µM) | 5.3 µg/mL (≈ 17.3 µM) | 0.18 µg/mL (≈ 0.588 µM) | complete cross resistance does not always occur | 2.7 µg/mL (≈ 8.81 µM) | 0.7 µg/mL (≈ 2.28 µM) | 1.4 µg/mL (≈ 4.57 µM) | 41.7 µg/mL (≈ 136 µM) | 1.4 µg/mL (≈ 4.57 µM) | > 83.3 µg/mL | 0.18 µg/mL (≈ 0.588 µM) | 0.09 µg/mL (≈ 0.294 µM) | 0.35 µg/mL (≈ 1.14 µM) | 0.18 µg/mL (≈ 0.588 µM) | 0.7 µg/mL (≈ 2.28 µM) | 0.18 µg/mL (≈ 0.588 µM) | – | – | MIC [2, 19]: 1.4 µg/mL (≈ 4.57 µM); MIC [6, 20]: 0.35 µg/mL (≈ 1.14 µM); MIC [10, 21]: 1.4 µg/mL (≈ 4.57 µM); MIC [13, 22]: 10.5 µg/mL (≈ 34.3 µM); MIC (Escherichia coli ATCC 26; [23]): 0.35 µg/mL (≈ 1.14 µM); MIC [15, 24]: 0.35 µg/mL (≈ 1.14 µM); MIC [16, 18]: > 83.3 µg/mL
NCC1OC(OC2C(N)CC(N)C(OC3OCC(O)C(O)C3N)C2O)C(N)C(O)C1O (stereo not shown) [XK-88-3] | strong antibacterial activity | strong antibacterial activity | 5.3 µg/mL (≈ 11.7 µM) | 5.3 µg/mL (≈ 11.7 µM) | 0.09 µg/mL (≈ 0.198 µM) | complete cross resistance does not always occur | 2.7 µg/mL (≈ 5.95 µM) | 0.18 µg/mL (≈ 0.397 µM) | 0.35 µg/mL (≈ 0.772 µM) | 41.7 µg/mL (≈ 92 µM) | 0.35 µg/mL (≈ 0.772 µM) | 83.3 µg/mL (≈ 184 µM) | 0.05 µg/mL (≈ 0.11 µM) | 5.3 µg/mL (≈ 11.7 µM) | 0.35 µg/mL (≈ 0.772 µM) | 0.18 µg/mL (≈ 0.397 µM) | 2.7 µg/mL (≈ 5.95 µM) | 0.05 µg/mL (≈ 0.11 µM) | – | – | MIC [2, 19]: 1.4 µg/mL (≈ 3.09 µM); MIC [6, 20]: 2.7 µg/mL (≈ 5.95 µM); MIC [10, 21]: 1.4 µg/mL (≈ 3.09 µM); MIC [13, 22]: > 416 µg/mL; MIC (Escherichia coli ATCC 26; [23]): 0.18 µg/mL (≈ 0.397 µM); MIC [15, 17]: > 83.3 µg/mL; MIC [16, 18]: > 83.3 µg/mL
COC1COC(OC2C(N)CC(N)C(OC3OC(CN)CC(O)C3N)C2O)C(N)C1N (stereo not shown) [XK-88-5] | strong antibacterial activity | strong antibacterial activity | < 0.02 µg/mL | 0.66 µg/mL (≈ 1.46 µM) | 2.7 µg/mL (≈ 5.99 µM) | complete cross resistance does not always occur | 1.31 µg/mL (≈ 2.91 µM) | 0.09 µg/mL (≈ 0.2 µM) | 0.33 µg/mL (≈ 0.732 µM) | 20.8 µg/mL (≈ 46.2 µM) | 0.14 µg/mL (≈ 0.311 µM) | > 41.6 µg/mL | < 0.05 µg/mL | 0.04 µg/mL (≈ 0.0888 µM) | 0.17 µg/mL (≈ 0.377 µM) | 0.07 µg/mL (≈ 0.155 µM) | 0.66 µg/mL (≈ 1.46 µM) | 0.04 µg/mL (≈ 0.0888 µM) | – | – | MIC [2, 19]: 0.53 µg/mL (≈ 1.18 µM); MIC [6, 20]: 0.04 µg/mL (≈ 0.0888 µM); MIC [10, 21]: 0.66 µg/mL (≈ 1.46 µM); MIC [13, 22]: 8.3 µg/mL (≈ 18.4 µM); MIC (Escherichia coli ATCC 26; [23]): 0.08 µg/mL (≈ 0.178 µM); MIC [15, 24]: 0.17 µg/mL (≈ 0.377 µM); MIC ([16]; ATCC10541, Streptococcus faecalis ATCC 10541, agar dilution, pH 8.0, read-out: Minimum Inhibitory Concentration (M.I.C.)): 10.5 µg/mL (≈ 23.3 µM)
NC1CC(N)C(OC2OC(CO)C(O)C(O)C2N)C(O)C1OC1OCC(O)C(O)C1N (stereo not shown) [sulfate of XK-88-1] | – | – | – | – | – | – | – | – | – | – | – | – | – | – | – | – | – | – | insoluble | poorly soluble | solubility in water (Solubility): very soluble
NCC1CC(O)C(N)C(OC2C(N)CC(N)C(O)C2O)O1 (stereo not shown) [sulfate of XK-88-2] | – | – | – | – | – | – | – | – | – | – | – | – | – | – | – | – | – | – | insoluble | poorly soluble | solubility in water (Solubility): very soluble
NCC1OC(OC2C(N)CC(N)C(OC3OCC(O)C(O)C3N)C2O)C(N)C(O)C1O (stereo not shown) [sulfate of XK-88-3] | – | – | – | – | – | – | – | – | – | – | – | – | – | – | – | – | – | – | insoluble | poorly soluble | solubility in water (Solubility): very soluble
COC1COC(OC2C(N)CC(N)C(OC3OC(CN)CC(O)C3N)C2O)C(N)C1N (stereo not shown) [sulfate of XK-88-5] | – | – | – | – | – | – | – | – | – | – | – | – | – | – | – | – | – | – | insoluble | poorly soluble | solubility in water (Solubility): very soluble
